# Data taken from PubChem BioAssay (NCI).
#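 Results reflect a 48-hour exposure of cells in 96-well plates to compound at five concentrations. GI50 is the concentration that inhibits growth by half. Definition used: TGI = concentration required for complete inhibition of growth.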
# What was measured:
# Experiment in all cases: NCI anticancer screen, dose series, 48 h
# [1] = tested on: NCI-H226 lung
# [2] = tested on: A549 NSCLC
# [3] = tested on: SNB-75 CNS
# [4] = tested on: RXF 393 renal
# [5] = tested on: MALME-3M melanoma
# [6] = tested on: MDA-MB-231 breast
# [7] = tested on: T-47D breast
# [8] = tested on: UACC-257 melanoma
# [9] = tested on: NCI-H460 lung
# [10] = tested on: NCI-H522 lung
# [11] = tested on: KM12 colon
# [12] = tested on: 786-0 renal
# [13] = tested on: OVCAR-5 ovarian
# [14] = tested on: HT29 colon
# [15] = tested on: SN12C renal
# [16] = tested on: MDA-MB-468 breast
# [17] = tested on: CCRF-CEM leukemia
# [18] = tested on: NCI-H23 lung
# [19] = tested on: HCT-15 colon
# [20] = tested on: BT-549 breast
# [21] = tested on: U251 CNS
# [22] = tested on: EKVX NSCLC
# [23] = tested on: SW-620 colon
# [24] = tested on: TK-10 renal
# [25] = tested on: SR leukemia
# [26] = tested on: DU-145 prostate
# [27] = tested on: SK-OV-3 ovarian
# [28] = tested on: OVCAR-4 ovarian
# [29] = tested on: MCF7 breast
# [30] = tested on: SF-539 CNS
# [31] = tested on: SNB-19 CNS
# [32] = tested on: HCT-116 colon
# [33] = tested on: MDA-MB-435
# [34] = tested on: HS 578T breast
# [35] = tested on: LOX IMVI melanoma
# [36] = tested on: HOP-92 NSCLC
# [37] = tested on: UACC-62 melanoma
# [38] = tested on: RPMI-8226 leukemia
# [39] = tested on: NCI/ADR-RES ovarian
# [40] = tested on: K-562 leukemia
# [41] = tested on: HCC-2998 colon
# [42] = tested on: SK-MEL-2 melanoma
# [43] = tested on: IGROV1 ovarian
# [44] = tested on: MOLT-4 leukemia
# [45] = tested on: SF-295 CNS
# [46] = tested on: A498 renal
# [47] = tested on: UO-31 renal
# [48] = tested on: M14 melanoma
# [49] = tested on: HOP-62 NSCLC
# [50] = tested on: CAKI-1 renal
# [51] = tested on: OVCAR-8 ovarian
# [52] = tested on: PC-3 prostate
# [53] = tested on: HL-60(TB) leukemia
# [54] = tested on: ACHN renal
# [55] = tested on: SF-268 CNS
# [56] = tested on: COLO 205 colon
# [57] = tested on: SK-MEL-28 melanoma
# [58] = tested on: OVCAR-3 ovarian
# [59] = tested on: SK-MEL-5 melanoma
compound,measurement,setting,value
O=C(NO)c1ccc(CNc2nc(-c3ccccc3)c3ccccc3n2)cc1,GI50,[1],2.67 µM
same,TGI,[1],14.6 µM
same,GI50,[2],3.23 µM
same,TGI,[2],> 13.4 µM
same,GI50,[3],2.36 µM
same,TGI,[3],> 12 µM
same,GI50,[4],1.23 µM
same,TGI,[4],3.58 µM
same,GI50,[5],1.36 µM
same,TGI,[5],4.72 µM
same,GI50,[6],2.44 µM
same,TGI,[6],8.22 µM
same,GI50,[7],2.28 µM
same,TGI,[7],21.7 µM
same,GI50,[8],2.02 µM
same,TGI,[8],> 16.5 µM
same,GI50,[9],3.04 µM
same,TGI,[9],> 17.1 µM
same,GI50,[10],1.85 µM
same,TGI,[10],8.25 µM
same,GI50,[11],3.69 µM
same,TGI,[11],> 12.5 µM
same,GI50,[12],2.75 µM
same,TGI,[12],11.8 µM
same,GI50,[13],1.55 µM
same,TGI,[13],4.87 µM
same,GI50,[14],2.46 µM
same,TGI,[14],> 23.3 µM
same,GI50,[15],3.09 µM
same,TGI,[15],12 µM
same,GI50,[16],1.49 µM
same,TGI,[16],5.41 µM
same,GI50,[17],2.73 µM
same,TGI,[17],> 28 µM
same,GI50,[18],2.24 µM
same,TGI,[18],7.72 µM
same,GI50,[19],2.85 µM
same,TGI,[19],9.1 µM
same,GI50,[20],3.99 µM
same,TGI,[20],15.8 µM
same,GI50,[21],2.37 µM
same,TGI,[21],8.78 µM
same,GI50,[22],3.59 µM
same,TGI,[22],> 17 µM
same,GI50,[23],2.09 µM
same,TGI,[23],5.91 µM
same,GI50,[24],2.12 µM
same,TGI,[24],> 19.8 µM
same,GI50,[25],> 18.1 µM
same,TGI,[25],> 28 µM
same,GI50,[26],2.78 µM
same,TGI,[26],> 28 µM
same,GI50,[27],2.15 µM
same,TGI,[27],6.25 µM
same,GI50,[28],5.4 µM
same,TGI,[28],> 20.6 µM
same,GI50,[29],3.22 µM
same,TGI,[29],> 28 µM
same,GI50,[30],2.77 µM
same,TGI,[30],> 11.3 µM
same,GI50,[31],2.83 µM
same,TGI,[31],9.91 µM
same,GI50,[32],2.04 µM
same,TGI,[32],8.01 µM
same,GI50,[33],2.4 µM
same,TGI,[33],> 9.06 µM
same,GI50,[34],2.47 µM
same,TGI,[34],> 28 µM
same,GI50,[35],2.08 µM
same,TGI,[35],5.35 µM
same,GI50,[36],1.95 µM
same,TGI,[36],6.6 µM
same,GI50,[37],1.34 µM
same,TGI,[37],3.16 µM
same,GI50,[38],2.36 µM
same,TGI,[38],> 28 µM
same,GI50,[39],0.159 µM
same,TGI,[39],0.954 µM
same,GI50,[40],3.05 µM
same,TGI,[40],> 28 µM
same,GI50,[41],1.82 µM
same,TGI,[41],5.63 µM
same,GI50,[42],1.42 µM
same,TGI,[42],7.54 µM
same,GI50,[43],2.29 µM
same,TGI,[43],6.96 µM
same,GI50,[44],3.01 µM
same,TGI,[44],> 28 µM
same,GI50,[45],1.84 µM
same,TGI,[45],4.69 µM
same,GI50,[46],1.68 µM
same,TGI,[46],5.45 µM
same,GI50,[47],1.99 µM
same,TGI,[47],6.71 µM
same,GI50,[48],3.2 µM
same,TGI,[48],> 13.5 µM
same,GI50,[49],2.88 µM
same,TGI,[49],12.2 µM
same,GI50,[50],2.5 µM
same,TGI,[50],8.52 µM
same,GI50,[51],2.65 µM
same,TGI,[51],> 12.4 µM
same,GI50,[52],4.84 µM
same,TGI,[52],27.3 µM
same,GI50,[53],3.59 µM
same,TGI,[53],> 28 µM
same,GI50,[54],2.05 µM
same,TGI,[54],5.55 µM
same,GI50,[55],3.57 µM
same,TGI,[55],15.2 µM
same,GI50,[56],1.69 µM
same,TGI,[56],3.81 µM
same,GI50,[57],2.42 µM
same,TGI,[57],8.17 µM
same,GI50,[58],2.68 µM
same,TGI,[58],8.7 µM
same,GI50,[59],1.62 µM
same,TGI,[59],3.32 µM
O=C(CNc1nc(-c2ccccc2)cs1)Nc1ccccc1,GI50,[1],1.94 µM
same,TGI,[1],7.99 µM
same,GI50,[2],3.25 µM
same,TGI,[2],13.5 µM
same,GI50,[3],1.05 µM
same,TGI,[3],6.68 µM
same,GI50,[4],1.85 µM
same,TGI,[4],3.86 µM
same,GI50,[5],1.54 µM
same,TGI,[5],3.23 µM
same,GI50,[6],1.93 µM
same,TGI,[6],7.28 µM
same,GI50,[7],2.57 µM
same,TGI,[7],10.2 µM
same,GI50,[8],2.05 µM
same,TGI,[8],8.33 µM
same,GI50,[9],2.94 µM
same,TGI,[9],11.8 µM
same,GI50,[10],1.53 µM
same,TGI,[10],3.02 µM
same,GI50,[11],3.87 µM
same,TGI,[11],14.9 µM
same,GI50,[12],2.63 µM
same,TGI,[12],5.48 µM
same,GI50,[13],2.95 µM
same,TGI,[13],7.03 µM
same,GI50,[14],2.06 µM
same,TGI,[14],4.08 µM
same,GI50,[15],1.54 µM
same,TGI,[15],3.44 µM
same,GI50,[16],1.55 µM
same,TGI,[16],3.2 µM
same,GI50,[17],1.88 µM
same,TGI,[17],> 100 µM
same,GI50,[18],1.48 µM
same,TGI,[18],3.15 µM
same,GI50,[19],1.61 µM
same,TGI,[19],3.36 µM
same,GI50,[20],2.25 µM
same,TGI,[20],4.23 µM
same,GI50,[21],1.56 µM
same,TGI,[21],3.34 µM
same,GI50,[22],1.58 µM
same,TGI,[22],3.14 µM
same,GI50,[23],2.46 µM
same,TGI,[23],6.04 µM
same,GI50,[24],4.64 µM
same,TGI,[24],12.4 µM
same,GI50,[25],1.42 µM
same,TGI,[25],> 100 µM
same,GI50,[26],3.74 µM
same,TGI,[26],13.4 µM
same,GI50,[27],2.92 µM
same,TGI,[27],10.2 µM
same,GI50,[28],4.88 µM
same,TGI,[28],18.1 µM
same,GI50,[29],1.4 µM
same,TGI,[29],3.41 µM
same,GI50,[30],1.77 µM
same,TGI,[30],3.22 µM
same,GI50,[31],1.82 µM
same,TGI,[31],4.16 µM
same,GI50,[32],1.81 µM
same,TGI,[32],5.75 µM
same,GI50,[33],2.05 µM
same,TGI,[33],5.32 µM
same,GI50,[34],3.04 µM
same,TGI,[34],> 100 µM
same,GI50,[35],1.21 µM
same,TGI,[35],2.7 µM
same,GI50,[36],3.47 µM
same,TGI,[36],16.5 µM
same,GI50,[37],1.14 µM
same,TGI,[37],2.58 µM
same,GI50,[38],2.29 µM
same,TGI,[38],80.9 µM
same,GI50,[39],2.29 µM
same,TGI,[39],6.16 µM
same,GI50,[40],2.32 µM
same,TGI,[40],> 100 µM
same,GI50,[41],1.77 µM
same,TGI,[41],3.88 µM
same,GI50,[42],1.73 µM
same,TGI,[42],4.29 µM
same,GI50,[43],1.5 µM
same,TGI,[43],4.87 µM
same,GI50,[44],1.83 µM
same,TGI,[44],7.46 µM
same,GI50,[45],2.48 µM
same,TGI,[45],11.6 µM
same,GI50,[46],11.1 µM
same,TGI,[46],23.5 µM
same,GI50,[47],2.37 µM
same,TGI,[47],12.9 µM
same,GI50,[48],1.52 µM
same,TGI,[48],3.49 µM
same,GI50,[49],2.17 µM
same,TGI,[49],6.31 µM
same,GI50,[50],2.2 µM
same,TGI,[50],10.6 µM
same,GI50,[51],2.96 µM
same,TGI,[51],14.9 µM
same,GI50,[52],2.96 µM
same,TGI,[52],30.3 µM
same,GI50,[53],1.83 µM
same,TGI,[53],6.67 µM
same,GI50,[54],2.6 µM
same,TGI,[54],10.6 µM
same,GI50,[55],3.33 µM
same,TGI,[55],22.9 µM
same,GI50,[56],2.16 µM
same,TGI,[56],4.57 µM
same,GI50,[57],2.56 µM
same,TGI,[57],6.81 µM
same,GI50,[58],1.93 µM
same,TGI,[58],4.36 µM
same,GI50,[59],1.62 µM
same,TGI,[59],2.98 µM
